System: healthy adult males
Assay: Incremental loading exercise test with bicycle
Format: in vivo, human
Procedure: For 25 healthy adult males, 3 dosages of kaempferol-containing cookie-shaped foods (containing 2.5 mg, 10 mg, or 25 mg of kaempferol, respectively) and a placebo cookie-shaped food (kaempferol-free) were used as test foods, and a once-a-day ingestion for consecutive 8 days were repeated four times by the crossover method. 3 hours after a test food ingestion on day 1 (Single ingestion) and on day 8 (Consecutive ingestion), an incremental loading exercise with bicycle was performed while sampling the exhaled gas to determine the oxygen consumption. The Heart rate and the rating of perceived exertion were monitored during exercise. Dynamic/kinetic visual acuity was measured before and after the exercise. Details of each endpoint are given below. Oxygen consumption (VO2) (mL/min/kg) was calculated from the difference between the amount of oxygen in the inhaled gas (atmosphere) and the amount of oxygen in the exhaled gas. When a weight of the pedal approaches a subject's limit during incremental loading exercise with bicycle, a heart rate (HR) is maximized. The increase in heart rate from the resting heart rate to the maximum heart rate was defined as 100% of exercise intensity, and the oxygen consumption (VO2) was plotted at each exercise intensity. That is, for example, an exercise intensity of 50% HR is calculated by the following equation: 100×(x−Resting heart rate)/(Maximum heart rate−Resting heart rate)=50% HR, and the oxygen consumption (VO2) in which the heart rate is the “x” means “oxygen consumption (VO2) at an exercise intensity of 50% HR”. Oxygen consumption efficiency was calculated by the following equation. Oxygen consumption efficiency (VO2/VE)=oxygen consumption/ventilation The oxygen uptake efficiency slope (OUES) was calculated using the ventilation and VO2 every 1 min from the beginning of the incremental loading exercise. Specifically, a graph of linearity was obtained by plotting “logarithmic value of ventilation (VE)” on the horizontal axis and “VO2” on the vertical axis, and the slope of the linear function graph was defined as OUES. For details, see Non-Patent Document 5. Exercise intensity (% HR) and rating of perceived exertion (RPE) at the oxygen consumption (VO2) of 14 mL/min/kg and 24.5 mL/min/kg in incremental loading exercise (the levels of stair climbing and jogging, respectively) were evaluated. The calculation methods for oxygen consumption (VO2) and exercise intensity (% HR) are the same as those described above. The perceived exertion was rated by the subject according to the following table at 1-minute intervals from the beginning of the incremental loading exercise, and the scales rated by each subject were averaged to give the rating of perceived exertion (RPE).

[1] = single and consecutive ingestion, at VO2 of 14 mL/min/kg (stair climbing) and 24.5 mL/min/kg (jogging), compared with no intake of kaempferol
[2] = single and consecutive ingestion, incremental loading exercise, compared with no intake of kaempferol

Question: What does the source list for `O=c1c(O)c(-c2ccc(O)cc2)oc2cc(O)cc(O)c12` [kaempferol]?
Answer: oxygen consumption efficiency (VO2/VE) (single and consecutive ingestion, after initiation of incremental loading exercise, compared with no intake of kaempferol): increased oxygen consumption efficiency; exercise intensity (% HR) at given oxygen consumption [1]: decreased exercise intensity; rating of perceived exertion (RPE) [1]: decreased rating of perceived exertion; maximum exercise load (Pedal Weight (watt)) [2]: increased maximum exercise load; maximum oxygen consumption (VO2peak) [2]: increased maximum oxygen consumption; oxygen uptake efficiency slope (OUES) [2]: increased oxygen uptake efficiency slope; oxygen consumption (VO2) at each exercise intensity (single ingestion (day 1) and consecutive ingestion (day 8), 3 hours after ingestion, exercise intensities 50-100% HR, compared with no intake of kaempferol (placebo)): increased oxygen consumption at all exercise intensities

Source: patent publication US20220151276A1, “COMPOSITION CONTAINING PLANT-DERIVED EXTRACT AND/OR PLANT-DERIVED PROCESSED PRODUCT” (OTSUKA PHARMACEUTICAL CO., LTD., priority 2019, published 2022)
